From PubChem BioAssay (NCI)
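Grown in 96-well plates, cells were treated for 48 hours with each compound at five concentrations. Insufficient inhibition: endpoint recorded as highest concentration tested. GI50: concentration for 50% inhibition of growth. TGI marks complete inhibition of growth.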 *1 amine or outer side, *2 acyl side, *3 side chain or, on linkers, in order; H or OH if unused. Where a SMILES comes first, the peptide text is derived from it. [ ]: non-standard residue; d: D form. The star is where a group is joined. ξ: configuration not given here. X15 = CCN(CC)c1ccc2cc(N*)c(=O)oc2c1; dIva = CC[C@@](C)(N)C(=O)O; X14 = O=C(OCCN[*:1])[*:2]; Aib = CC(C)(N)C(=O)O; ξP = O=C(O)C1CCCN1; βAla = NCCC(=O)O

Columns and labels:
Assay in all cases: growth of human tumour cells (NCI), 48 h
786-0 renal = test system: 786-0 renal
A498 renal = test system: A498 renal
A549 NSCLC = test system: A549 NSCLC
ACHN renal = test system: ACHN renal
BT-549 breast = test system: BT-549 breast
CAKI-1 renal = test system: CAKI-1 renal
CCRF-CEM leukemia = test system: CCRF-CEM leukemia
COLO 205 colon = test system: COLO 205 colon
DU-145 prostate = test system: DU-145 prostate
EKVX NSCLC = test system: EKVX NSCLC
HCC-2998 colon = test system: HCC-2998 colon
HCT-116 colon = test system: HCT-116 colon
HCT-15 colon = test system: HCT-15 colon
HL-60(TB) leukemia = test system: HL-60(TB) leukemia
HOP-62 NSCLC = test system: HOP-62 NSCLC
HOP-92 NSCLC = test system: HOP-92 NSCLC
HS 578T breast = test system: HS 578T breast
HT29 colon = test system: HT29 colon
K-562 leukemia = test system: K-562 leukemia
KM12 colon = test system: KM12 colon
LOX IMVI melanoma = test system: LOX IMVI melanoma
M14 melanoma = test system: M14 melanoma
MALME-3M melanoma = test system: MALME-3M melanoma
MCF7 breast = test system: MCF7 breast
MDA-MB-435 = test system: MDA-MB-435
MOLT-4 leukemia = test system: MOLT-4 leukemia
NCI-H226 lung = test system: NCI-H226 lung
NCI-H23 lung = test system: NCI-H23 lung
NCI-H460 lung = test system: NCI-H460 lung
NCI-H522 lung = test system: NCI-H522 lung
NCI/ADR-RES ovarian = test system: NCI/ADR-RES ovarian
OVCAR-3 ovarian = test system: OVCAR-3 ovarian
OVCAR-4 ovarian = test system: OVCAR-4 ovarian
OVCAR-5 ovarian = test system: OVCAR-5 ovarian
OVCAR-8 ovarian = test system: OVCAR-8 ovarian
PC-3 prostate = test system: PC-3 prostate
RXF 393 renal = test system: RXF 393 renal
SF-268 CNS = test system: SF-268 CNS
SF-295 CNS = test system: SF-295 CNS
SF-539 CNS = test system: SF-539 CNS
SK-MEL-2 melanoma = test system: SK-MEL-2 melanoma
SK-MEL-28 melanoma = test system: SK-MEL-28 melanoma
SK-MEL-5 melanoma = test system: SK-MEL-5 melanoma
SK-OV-3 ovarian = test system: SK-OV-3 ovarian
SN12C renal = test system: SN12C renal
SNB-19 CNS = test system: SNB-19 CNS
SNB-75 CNS = test system: SNB-75 CNS
SR leukemia = test system: SR leukemia
SW-620 colon = test system: SW-620 colon
T-47D breast = test system: T-47D breast
TK-10 renal = test system: TK-10 renal
U251 CNS = test system: U251 CNS
UACC-257 melanoma = test system: UACC-257 melanoma
UACC-62 melanoma = test system: UACC-62 melanoma
UO-31 renal = test system: UO-31 renal

Which GI50 (786-0 renal) does the source give for CCN(CC)c1ccc2cc(NC(=O)OCCNC(=O)CCNC(=O)[C@H](CC(C)C)NC(=O)C(C)(C)NC(=O)C(C)(C)NC(=O)[C@H](CC(C)C)NC(=O)CCNC(=O)C(C)(C)NC(=O)[C@H](CC(C)C)NC(=O)CCNC(=O)[C@@](C)(CC)NC(=O)[C@H](C)NC(=O)CCNC(=O)C(C)(C)NC(=O)[C@H](C)NC(=O)[C@@H]3CCCN3C(=O)[C@@](C)(CC)NC(=O)[C@H](Cc3ccccc3)NC(=O)C3CCCN3C(=O)C(C)(C)NC(=O)C3CCCN3C(=O)C(C)(C)NC(C)=O)c(=O)oc2c1 (stereo not given in full) (Ac-[Aib][ξP][Aib][ξP]F[dIva]PA[Aib][βAla]A[dIva][βAla]L[Aib][βAla]L[Aib][Aib]L[βAla][X14]-X15) here?
The GI50 was 10.2 nM.

What about the TGI (786-0 renal) of the same molecule?
The TGI was 31.9 nM.

And the GI50 (A498 renal)?
Its GI50 is 2.91 nM.

And the TGI (A498 renal)?
The TGI was 26.5 nM.

What about the GI50 (A549 NSCLC) of the same molecule?
The GI50 was 3.54 nM.

And the TGI (A549 NSCLC)?
Its TGI is 115 nM.

What about the GI50 (ACHN renal) of the same molecule?
The GI50 was 40.6 nM.

What about the TGI (ACHN renal) of the same molecule?
The TGI was 160 nM.

And the GI50 (BT-549 breast)?
The GI50 was 3.67 nM.

What about the TGI (BT-549 breast) of the same molecule?
The TGI was 22 nM.

And the GI50 (CAKI-1 renal)?
Its GI50 is 156 nM.

And the TGI (CAKI-1 renal)?
The TGI was 304 nM.

And the GI50 (CCRF-CEM leukemia)?
The GI50 was 4.65 nM.

What about the TGI (CCRF-CEM leukemia) of the same molecule?
Its TGI is 28.7 nM.

And the GI50 (COLO 205 colon)?
The GI50 was 2.37 nM.

What about the TGI (COLO 205 colon) of the same molecule?
The TGI was 6 nM.

And the GI50 (DU-145 prostate)?
Its GI50 is 4.97 nM.

And the TGI (DU-145 prostate)?
The TGI was 19.9 nM.

And the GI50 (EKVX NSCLC)?
Its GI50 is 4.21 nM.

What about the TGI (EKVX NSCLC) of the same molecule?
Its TGI is 24.1 nM.

And the GI50 (HCC-2998 colon)?
The GI50 was 4.77 nM.

What about the TGI (HCC-2998 colon) of the same molecule?
The TGI was 127 nM.

And the GI50 (HCT-116 colon)?
Its GI50 is 3.5 nM.

And the TGI (HCT-116 colon)?
Its TGI is 45.5 nM.

What about the GI50 (HCT-15 colon) of the same molecule?
Its GI50 is 135 nM.

And the TGI (HCT-15 colon)?
Its TGI is 278 nM.

And the GI50 (HL-60(TB) leukemia)?
The GI50 was 3.16 nM.

And the TGI (HL-60(TB) leukemia)?
Its TGI is 11 nM.

And the GI50 (HOP-62 NSCLC)?
The GI50 was 3.85 nM.

And the TGI (HOP-62 NSCLC)?
Its TGI is 21 nM.

What about the GI50 (HOP-92 NSCLC) of the same molecule?
The GI50 was 25.6 nM.

What about the TGI (HOP-92 NSCLC) of the same molecule?
Its TGI is 70.9 nM.

What about the GI50 (HS 578T breast) of the same molecule?
Its GI50 is 4.5 nM.

And the TGI (HS 578T breast)?
The TGI was 54.8 nM.

What about the GI50 (HT29 colon) of the same molecule?
Its GI50 is 3.66 nM.

What about the TGI (HT29 colon) of the same molecule?
The TGI was 103 nM.

What about the GI50 (K-562 leukemia) of the same molecule?
Its GI50 is 4.17 nM.

And the TGI (K-562 leukemia)?
Its TGI is 23.7 nM.

What about the GI50 (KM12 colon) of the same molecule?
Its GI50 is 4.25 nM.

And the TGI (KM12 colon)?
Its TGI is 34.8 nM.

And the GI50 (LOX IMVI melanoma)?
Its GI50 is 1.92 nM.

What about the TGI (LOX IMVI melanoma) of the same molecule?
The TGI was 3.84 nM.

What about the GI50 (M14 melanoma) of the same molecule?
The GI50 was 8.38 nM.

And the TGI (M14 melanoma)?
Its TGI is 35.8 nM.

What about the GI50 (MALME-3M melanoma) of the same molecule?
Its GI50 is 2.1 nM.

What about the TGI (MALME-3M melanoma) of the same molecule?
The TGI was 5.97 nM.

And the GI50 (MCF7 breast)?
Its GI50 is 3.13 nM.

What about the TGI (MCF7 breast) of the same molecule?
The TGI was 28.6 nM.

What about the GI50 (MDA-MB-435) of the same molecule?
The GI50 was 3.53 nM.

What about the TGI (MDA-MB-435) of the same molecule?
The TGI was 25.2 nM.

And the GI50 (MOLT-4 leukemia)?
The GI50 was 3.99 nM.

And the TGI (MOLT-4 leukemia)?
Its TGI is 18.4 nM.

And the GI50 (NCI-H226 lung)?
Its GI50 is 5.61 nM.

What about the TGI (NCI-H226 lung) of the same molecule?
The TGI was 34.8 nM.

What about the GI50 (NCI-H23 lung) of the same molecule?
The GI50 was 3.47 nM.

What about the TGI (NCI-H23 lung) of the same molecule?
Its TGI is 14 nM.

What about the GI50 (NCI-H460 lung) of the same molecule?
The GI50 was 3.48 nM.

And the TGI (NCI-H460 lung)?
The TGI was 13.8 nM.

What about the GI50 (NCI-H522 lung) of the same molecule?
Its GI50 is 3.05 nM.

What about the TGI (NCI-H522 lung) of the same molecule?
The TGI was 12.4 nM.

What about the GI50 (NCI/ADR-RES ovarian) of the same molecule?
The GI50 was 176 nM.

What about the TGI (NCI/ADR-RES ovarian) of the same molecule?
Its TGI is 378 nM.

And the GI50 (OVCAR-3 ovarian)?
Its GI50 is 3.38 nM.

What about the TGI (OVCAR-3 ovarian) of the same molecule?
The TGI was 13.9 nM.

And the GI50 (OVCAR-4 ovarian)?
Its GI50 is 3.47 nM.

And the TGI (OVCAR-4 ovarian)?
Its TGI is 43.9 nM.

And the GI50 (OVCAR-5 ovarian)?
The GI50 was 5.06 nM.

And the TGI (OVCAR-5 ovarian)?
Its TGI is 116 nM.

And the GI50 (OVCAR-8 ovarian)?
Its GI50 is 5 nM.

And the TGI (OVCAR-8 ovarian)?
The TGI was 93.9 nM.

What about the GI50 (PC-3 prostate) of the same molecule?
Its GI50 is 3.11 nM.

And the TGI (PC-3 prostate)?
Its TGI is 28.1 nM.

What about the GI50 (RXF 393 renal) of the same molecule?
Its GI50 is 4.9 nM.

What about the TGI (RXF 393 renal) of the same molecule?
Its TGI is 17.3 nM.

What about the GI50 (SF-268 CNS) of the same molecule?
The GI50 was 4.35 nM.

What about the TGI (SF-268 CNS) of the same molecule?
The TGI was 18.7 nM.

What about the GI50 (SF-295 CNS) of the same molecule?
Its GI50 is 3.16 nM.

And the TGI (SF-295 CNS)?
Its TGI is 10.3 nM.

And the GI50 (SF-539 CNS)?
The GI50 was 4.91 nM.

What about the TGI (SF-539 CNS) of the same molecule?
The TGI was 20.2 nM.

What about the GI50 (SK-MEL-2 melanoma) of the same molecule?
The GI50 was 2.66 nM.

And the TGI (SK-MEL-2 melanoma)?
The TGI was 6.65 nM.

And the GI50 (SK-MEL-28 melanoma)?
Its GI50 is 7.83 nM.

What about the TGI (SK-MEL-28 melanoma) of the same molecule?
The TGI was 32.5 nM.

What about the GI50 (SK-MEL-5 melanoma) of the same molecule?
Its GI50 is 2.56 nM.

And the TGI (SK-MEL-5 melanoma)?
The TGI was 6.66 nM.

What about the GI50 (SK-OV-3 ovarian) of the same molecule?
The GI50 was 2.8 nM.

What about the TGI (SK-OV-3 ovarian) of the same molecule?
Its TGI is 7.75 nM.

What about the GI50 (SN12C renal) of the same molecule?
Its GI50 is 3.4 nM.

And the TGI (SN12C renal)?
The TGI was 14.3 nM.

And the GI50 (SNB-19 CNS)?
Its GI50 is 3.55 nM.

What about the TGI (SNB-19 CNS) of the same molecule?
The TGI was 42.6 nM.

And the GI50 (SNB-75 CNS)?
The GI50 was 2.54 nM.

What about the TGI (SNB-75 CNS) of the same molecule?
Its TGI is 24.2 nM.

What about the GI50 (SR leukemia) of the same molecule?
Its GI50 is 4.23 nM.

And the TGI (SR leukemia)?
The TGI was 23.5 nM.

What about the GI50 (SW-620 colon) of the same molecule?
The GI50 was 4.8 nM.

And the TGI (SW-620 colon)?
Its TGI is 102 nM.

And the GI50 (T-47D breast)?
Its GI50 is 3.02 nM.

And the TGI (T-47D breast)?
The TGI was 14.3 nM.

What about the GI50 (TK-10 renal) of the same molecule?
Its GI50 is 14.2 nM.

What about the TGI (TK-10 renal) of the same molecule?
The TGI was 79 nM.

What about the GI50 (U251 CNS) of the same molecule?
Its GI50 is 3.17 nM.

What about the TGI (U251 CNS) of the same molecule?
The TGI was 16.2 nM.

And the GI50 (UACC-257 melanoma)?
The GI50 was 2.22 nM.

What about the TGI (UACC-257 melanoma) of the same molecule?
Its TGI is 6.5 nM.

What about the GI50 (UACC-62 melanoma) of the same molecule?
The GI50 was 3.85 nM.

And the TGI (UACC-62 melanoma)?
The TGI was 18.9 nM.

And the GI50 (UO-31 renal)?
Its GI50 is 29.6 nM.

What about the TGI (UO-31 renal) of the same molecule?
Its TGI is 114 nM.
